Results: publication PMC3402541, “Guanidylation and Tail Effects in Cationic Antimicrobial Lipopeptoids” (PLoS ONE, 2012)
In brackets after ≈: the same amount, converted by molar mass.

Assays:
S.aureus ATCC 29213 = format: cell-based, Staphylococcus aureus; conditions: ATCC 29213, 24 h
Experimental: (§1) Antimicrobial activity of the purified lipopeptoids was determined without replication against a panel of clinically relevant and standard reference bacterial strains according to CLSI macrobroth standards. Stock solutions at 512 µg/mL were prepared in water, with DMSO as needed, and testing was performed in glass test tubes using Muller-Hinton broth and bacteria adjusted to 5 × 10^5 CFU/mL. Bacteria were incubated with the lipopeptoid of interest for 24 hr at 37°C prior to reading.
(§2) The bacteria Staphylococcus aureus ATCC 29213, methicillin-resistant S. aureus ATCC 33592, Staphylococcus epidermidis ATCC 14990, Enterococcus faecalis ATCC 29212, E. faecium ATCC 27270, Streptococcus pneumoniae ATCC 49619, Escherichia coli ATCC 25922, Pseudomonas aeruginosa ATCC 27853, and Klebsiella pneumoniae ATCC 13883 were acquired from the American Type Culture Collection (ATCC) and used as quality controls. The clinical strains methicillin-resistant S. epidermidis (MRSE) CAN-ICU 61589, E. coli CAN-ICU 61714, E. coli CAN-ICU 63074, P. aeruginosa CAN-ICU 62308, Stenotrophomonas maltophilia CAN-ICU 62584, Acinetobacter baumannii CAN-ICU 63169 were obtained from hospitals across Canada as part of the CAN-ICU studies, while methicillin-susceptible S. epidermidis (MSSE) 81388 was obtained from the 2008 CANWARD study.
(§3) After subculturing the relevant bacteria twice from frozen stock, in vitro activities of the antimicrobials were determined by macrobroth dilution methodology in accordance with the Clinical and Laboratory Standards Institute (CLSI) guidelines (3). The MICs were determined using glass test tubes (2 mL/tube) containing doubling antimicrobial dilutions of cation adjusted Mueller-Hinton broth inoculated to achieve a final concentration of approximately 5 x 10^5 CFU/mL, incubated in ambient air for 24 hr prior to reading. Colony counts were performed periodically to confirm inocula. The ATCC organisms […] ATCC 49619, Staphylococcus aureus ATCC 29213, Enterococcus faecalis ATCC 29212, Escherichia coli ATCC 25922, and Pseudomonas aeruginosa ATCC 27853 were used as quality control and to allow easy comparison to previously tested antimicrobials. Each test in this series was performed without replication. In our experience with cationic amphiphiles the results are accurate to within a single doubling.

[1] = system: S. maltophilia CAN-ICU 62584; format: cell-based, Stenotrophomonas maltophilia; conditions: CAN-ICU 62584, 24 h
Experimental: as §1, §2, §3

[2] = system: A. baumannii CAN-ICU 63169; format: cell-based, Acinetobacter baumannii; conditions: CAN-ICU 63169, 24 h
Experimental: as §1, §2, §3

E.coli CAN-ICU 61714 = format: cell-based, Escherichia coli; conditions: CAN-ICU 61714, 24 h
Experimental: as §1, §2, §3

E.coli ATCC 25922 = format: cell-based, Escherichia coli; conditions: ATCC 25922, 24 h
Experimental: as §1, §2, §3

E.coli CAN-ICU 63074 = format: cell-based, Escherichia coli; conditions: CAN-ICU 63074, 24 h
Experimental: as §1, §2, §3

MSSE 81388 CANWARD 2008 = format: cell-based, methicillin-susceptible S. epidermidis; conditions: 24 h
Experimental: as §1, §2, §3

ovine erythrocytes = assay: Haemolytic assay; format: cell-based, sheep; conditions: ovine erythrocytes in Tris buffered saline, 30 minutes, absorbance of supernatant at 540 nm
Experimental: Mammalian cell toxicity was determined by measuring lysis of ovine erythrocytes, a standard model for human cell toxicity. Cells were prewashed with Tris buffered saline and then incubated with a variety of lipopeptoid concentrations for 30 minutes. Following centrifugation, lysis was evaluated by testing the absorbance of the solution at 540 nm, with 0.5% NH4OH used as a positive control.
Toxicity to mammalian cells was determined using a sheep red blood cell (erythrocyte) haemolytic assay (4). Erythrocytes were washed and resuspended in Tris buffered saline prior to use, at a concentration of 1.46 - 4.5 x 10^9 cells/mL (on average 3.08 x 10^9 cells/mL). The cell suspension was diluted with varying concentrations of antimicrobials, from 50 μg/mL to 1 mg/mL and incubated for thirty minutes (final erythrocyte concentration 4.08 x 10^8 cells/mL). The samples were centrifuged following treatment and the absorbance of the supernatant was measured at 540 nm. A solution of 0.5% […] was used as a positive control, with normal buffered solution as the negative control. The toxicity was assessed as a function of percent haemolysis.

E. faecium ATCC 27270 = format: cell-based; conditions: ATCC 27270, 24 h
Experimental: as §1, §2, §3

MRSE CAN-ICU 61589 = format: cell-based, methicillin-resistant S. epidermidis; conditions: CAN-ICU 61589, 24 h
Experimental: as §1, §2, §3

E. faecalis ATCC 29212 = format: cell-based, Enterococcus faecalis; conditions: ATCC 29212, 24 h
Experimental: as §1, §2, §3

P.aeruginosa ATCC 27853 = format: cell-based, Pseudomonas aeruginosa; conditions: ATCC 27853, 24 h
Experimental: as §1, §2, §3

[3] = system: P.aeruginosa CAN-ICU 62308; format: cell-based, Pseudomonas aeruginosa; conditions: CAN-ICU 62308, 24 h
Experimental: as §1, §2, §3

K.pneumoniae ATCC 13883 = format: cell-based, Klebsiella pneumoniae; conditions: ATCC 13883, 24 h
Experimental: as §1, §2, §3

MRSA ATCC 33592 = format: cell-based, methicillin-resistant S. aureus; conditions: ATCC 33592, 24 h
Experimental: as §1, §2, §3

S.pneumoniae ATCC 49619 = format: cell-based, Streptococcus pneumoniae; conditions: ATCC 49619, 24 h
Experimental: as §1, §2, §3

| SMILES | MIC S.aureus (S.aureus ATCC 29213) [µg/mL] | MIC S.aureus in the presence of 4% bovine serum albumin (S.aureus ATCC 29213) [µg/mL] | MIC S. maltophilia [1] [µg/mL] | MIC S. maltophilia in the presence of 4% bovine serum albumin [1] [µg/mL] | MIC A. baumannii [2] [µg/mL] | MIC A. baumannii in the presence of 4% bovine serum albumin [2] [µg/mL] | MIC E.coli (E.coli CAN-ICU 61714) [µg/mL] | MIC E.coli in the presence of 4% bovine serum albumin (E.coli CAN-ICU 61714) [µg/mL] | MIC E.coli (E.coli ATCC 25922) [µg/mL] | MIC E.coli in the presence of 4% bovine serum albumin (E.coli ATCC 25922) [µg/mL] | MIC E.coli (E.coli CAN-ICU 63074) [µg/mL] | MIC E.coli in the presence of 4% bovine serum albumin (E.coli CAN-ICU 63074) [µg/mL] | MIC MSSE (MSSE 81388 CANWARD 2008) [µg/mL] | MIC MSSE in the presence of 4% bovine serum albumin (MSSE 81388 CANWARD 2008) [µg/mL] | MIC E. faecium (E. faecium ATCC 27270) [µg/mL] | MIC E. faecium in the presence of 4% bovine serum albumin (E. faecium ATCC 27270) [µg/mL] | MIC MRSE (MRSE CAN-ICU 61589) [µg/mL] | MIC MRSE in the presence of 4% bovine serum albumin (MRSE CAN-ICU 61589) [µg/mL] | MIC E. faecalis (E. faecalis ATCC 29212) [µg/mL] | MIC E. faecalis in the presence of 4% bovine serum albumin (E. faecalis ATCC 29212) [µg/mL] | also measured |
| --- | --- | --- | --- | --- | --- | --- | --- | --- | --- | --- | --- | --- | --- | --- | --- | --- | --- | --- | --- | --- | --- |
| CCCCCCCCCCCCCC(=O)N(CCCCNC(=N)N)CC(=O)NCC(=O)N(CCCCNC(=N)N)CC(N)=O [C14-NhargGNharg] | 16 (≈ 25.6 µM) | 512 | 256 (≈ 410 µM) | >512 | 512 (≈ 819 µM) | >512 | 64 (≈ 102 µM) | >512 | 32 (≈ 51.2 µM) | 512 | 64 (≈ 102 µM) | >512 | 8 (≈ 12.8 µM) | 512 | 32 (≈ 51.2 µM) | 512 | 16 (≈ 25.6 µM) | 512 | 32 (≈ 51.2 µM) | 512 | Percent haemolysis at 100µg/mL of compound (ovine erythrocytes): 55.44%; MIC P.aeruginosa (P.aeruginosa ATCC 27853): 64 µg/mL (≈ 102 µM); MIC P.aeruginosa in the presence of 4% bovine serum albumin (P.aeruginosa ATCC 27853): >512 µg/mL; MIC P.aeruginosa [3]: 128 µg/mL (≈ 205 µM); MIC P.aeruginosa in the presence of 4% bovine serum albumin [3]: >512 µg/mL; MIC K.pneumoniae (K.pneumoniae ATCC 13883): 256 µg/mL (≈ 410 µM); MIC K.pneumoniae in the presence of 4% bovine serum albumin (K.pneumoniae ATCC 13883): >512 µg/mL; MIC MRSA (MRSA ATCC 33592): 16 µg/mL (≈ 25.6 µM); MIC MRSA in the presence of 4% bovine serum albumin (MRSA ATCC 33592): 512 µg/mL; MIC S.pneumoniae (S.pneumoniae ATCC 49619): 128 µg/mL (≈ 205 µM); MIC S.pneumoniae in the presence of 4% bovine serum albumin (S.pneumoniae ATCC 49619): 512 µg/mL |
| CCCCCCCCCCCCCCCCCCCC(=O)N(CCCCNC(=N)N)CC(=O)NCC(=O)N(CCCCNC(=N)N)CC(N)=O [C20-NhargGNharg] | 16 (≈ 22.6 µM) | 512 | 256 (≈ 361 µM) | >512 | 128 (≈ 181 µM) | >512 | 256 (≈ 361 µM) | >512 | 256 (≈ 361 µM) | 512 | 256 (≈ 361 µM) | 512 | 8 (≈ 11.3 µM) | 256 | 16 (≈ 22.6 µM) | 256 | 8 (≈ 11.3 µM) | 256 | 16 (≈ 22.6 µM) | 512 | Percent haemolysis at 100µg/mL of compound (ovine erythrocytes): 71.87%; MIC P.aeruginosa (P.aeruginosa ATCC 27853): 512 µg/mL (≈ 722 µM); MIC P.aeruginosa in the presence of 4% bovine serum albumin (P.aeruginosa ATCC 27853): >512 µg/mL; MIC P.aeruginosa [3]: 256 µg/mL (≈ 361 µM); MIC P.aeruginosa in the presence of 4% bovine serum albumin [3]: >512 µg/mL; MIC K.pneumoniae (K.pneumoniae ATCC 13883): 128 µg/mL (≈ 181 µM); MIC K.pneumoniae in the presence of 4% bovine serum albumin (K.pneumoniae ATCC 13883): 512 µg/mL; MIC MRSA (MRSA ATCC 33592): 16 µg/mL (≈ 22.6 µM); MIC MRSA in the presence of 4% bovine serum albumin (MRSA ATCC 33592): 512 µg/mL; MIC S.pneumoniae (S.pneumoniae ATCC 49619): 256 µg/mL (≈ 361 µM); MIC S.pneumoniae in the presence of 4% bovine serum albumin (S.pneumoniae ATCC 49619): 64 µg/mL |
| CCCCCCCCCCC(=O)N(CCCCNC(=N)N)CC(=O)NCC(=O)N(CCCCNC(=N)N)CC(N)=O [C11-NhargGNharg] | 128 (≈ 220 µM) | 512 | >512 | >512 | 512 (≈ 879 µM) | >512 | 512 (≈ 879 µM) | >512 | 512 (≈ 879 µM) | 512 | 512 (≈ 879 µM) | >512 | 128 (≈ 220 µM) | 256 | 256 (≈ 439 µM) | 512 | 128 (≈ 220 µM) | 512 | 256 (≈ 439 µM) | >512 | Percent haemolysis at 100µg/mL of compound (ovine erythrocytes): 1.49%; MIC P.aeruginosa (P.aeruginosa ATCC 27853): >512 µg/mL; MIC P.aeruginosa in the presence of 4% bovine serum albumin (P.aeruginosa ATCC 27853): >512 µg/mL; MIC P.aeruginosa [3]: 512 µg/mL (≈ 879 µM); MIC P.aeruginosa in the presence of 4% bovine serum albumin [3]: 512 µg/mL; MIC K.pneumoniae (K.pneumoniae ATCC 13883): 512 µg/mL (≈ 879 µM); MIC K.pneumoniae in the presence of 4% bovine serum albumin (K.pneumoniae ATCC 13883): 512 µg/mL; MIC MRSA (MRSA ATCC 33592): 128 µg/mL (≈ 220 µM); MIC MRSA in the presence of 4% bovine serum albumin (MRSA ATCC 33592): 512 µg/mL; MIC S.pneumoniae (S.pneumoniae ATCC 49619): 512 µg/mL (≈ 879 µM); MIC S.pneumoniae in the presence of 4% bovine serum albumin (S.pneumoniae ATCC 49619): >512 µg/mL |
| CCCCCCCCCCC(=O)N(CCCCNC(=N)N)CC(=O)N(CCCCNC(=N)N)CC(=O)N(CCCCNC(=N)N)CC(N)=O [C11-NhargNhargNharg] | 128 (≈ 184 µM) | 512 | >512 | >512 | >512 | >512 | >512 | >512 | >512 | >512 | >512 | >512 | 64 (≈ 92 µM) | 512 | 256 (≈ 368 µM) | 512 | 256 (≈ 368 µM) | 512 | 512 (≈ 736 µM) | >512 | MIC P.aeruginosa (P.aeruginosa ATCC 27853): >512 µg/mL; MIC P.aeruginosa in the presence of 4% bovine serum albumin (P.aeruginosa ATCC 27853): >512 µg/mL; MIC P.aeruginosa [3]: >512 µg/mL; MIC P.aeruginosa in the presence of 4% bovine serum albumin [3]: >512 µg/mL; MIC K.pneumoniae (K.pneumoniae ATCC 13883): >512 µg/mL; MIC K.pneumoniae in the presence of 4% bovine serum albumin (K.pneumoniae ATCC 13883): >512 µg/mL; MIC MRSA (MRSA ATCC 33592): 128 µg/mL (≈ 184 µM); MIC MRSA in the presence of 4% bovine serum albumin (MRSA ATCC 33592): 512 µg/mL; MIC S.pneumoniae (S.pneumoniae ATCC 49619): 512 µg/mL (≈ 736 µM); MIC S.pneumoniae in the presence of 4% bovine serum albumin (S.pneumoniae ATCC 49619): >512 µg/mL |
